Assays:
Assay type in all cases: binding
[1] = target: T1, human adenosine A1 receptor (hA1R) (Homo sapiens, UniProt P30542); assay: Competition association with [3H]-DPCPX, filtration assay; settings: 28 °C, 1 mM GTP present for LUF5834, CCPA, NECA; for Filtration assay RT: 1/k off
T1 construct: Steve Hill (University of Nottingham, UK); host or cells: CHO cells stably expressing hA1R; membrane preparation
T1 sequence (P30542 1-326): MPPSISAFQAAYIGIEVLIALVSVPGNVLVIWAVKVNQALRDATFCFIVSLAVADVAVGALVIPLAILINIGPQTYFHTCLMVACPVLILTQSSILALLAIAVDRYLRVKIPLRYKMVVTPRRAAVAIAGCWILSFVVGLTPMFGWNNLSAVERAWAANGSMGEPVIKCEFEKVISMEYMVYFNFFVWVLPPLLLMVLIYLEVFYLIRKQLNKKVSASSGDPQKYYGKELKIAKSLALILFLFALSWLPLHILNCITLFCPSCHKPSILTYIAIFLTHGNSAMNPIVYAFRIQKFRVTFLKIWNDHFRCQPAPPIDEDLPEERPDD
Procedure: (§1) The binding kinetics of unlabeled ligands was quantified using the competition association assay based on the theoretical framework by Motulsky and Mahan.
The competition association assay was initiated by adding membrane aliquots (5 μg per well) at different time points for a total of 2 h in the absence or presence of competing ligand.

[2] = target: T1, human adenosine A1 receptor (hA1R); assay: Competition association with [3H]-DPCPX, SPA technology; settings: 28 °C, 1 mM GTP present for LUF5834, CCPA, NECA; for SPA RT: 1/k off
Procedure: as §1
The membrane-bead mixture was prepared as described under “Radioligand displacement experiments.” Once the membrane-bead mixture was added to the wells of an Isoplate-96 Microplate, measurements of radioligand bound to the receptor were started immediately and continued every 30 s for 2 h, using the 2450 MicroBeta^2 Plate Counter.

[3] = target: T1, human adenosine A1 receptor (hA1R); assay: Radioligand displacement of [3H]-DPCPX, filtration assay; settings: CHO-hA1R membranes, one-state model
Procedure: (§2) Non-specific binding (NSB) was determined in the presence of 100 μM CPA. Each condition was measured in duplicate, and at least three individual experiments were performed.
Membrane aliquots containing 5 μg protein were incubated together with the radioligand and competing ligands in a total volume of 100 μL assay buffer in a 96-well plate. After 1 h incubation at room temperature, the incubation was terminated by rapid vacuum filtration to separate the bound and free radioligand through 96-well GF/B filter plates using a PerkinElmer Filtermate-harvester (Perkin Elmer, Groningen, the Netherlands). Filters were subsequently washed three times with ice-cold wash buffer (50 mM Tris-HCl [pH 7.4], supplemented with 5 mM MgCl2). After 30 min of dehydration of the filter plate at 50 °C, the filter-bound radioactivity was determined by scintillation spectrometry using the 2450 MicroBeta^2 Plate Counter. The binding values were recorded in both counts per minute (CPM) and disintegrations per minute (DPM).

[4] = target: T1, human adenosine A1 receptor (hA1R); assay: Radioligand displacement of [3H]-DPCPX, SPA technology; settings: CHO-hA1R membranes, one-state model
Procedure: as §2
A mixture of 5 μg protein membrane and 1 mg SPA bead was pre-coupled in a shaker (Vibrax VXR, IKA) in a volume of 50 μL of assay buffer at room temperature for 30 min. Then, together with the radioligand and competing ligands, the membrane-bead mixture was dispatched in an Isoplate-96 Microplate (Perkin Elmer, Groningen, the Netherlands), in a final reaction volume of 100 μL. The plate was incubated for 1 h inside the counting chamber of a 2450 MicroBeta^2 Plate Counter (Perkin Elmer, Groningen, the Netherlands) at the ambient temperature of 28 °C. The binding values were recorded in corrected counts per minute (CCPM).

Filtration assay RT [1] [min]	SPA RT [2] [min]	Filtration assay k off (k4) ([1]; […] [3H]-DPCPX) [s⁻¹]	Filtration assay k on (k3) ([1]; […] [3H]-DPCPX) [M⁻¹ s⁻¹]	Kd ([1]; k off/k on, read-out: Filtration assay Kinetic K D) [nM]	Ki [3] [nM]	Ki [4] [nM]	SPA k off (k4) ([2]; […] [3H]-DPCPX) [s⁻¹]	SPA k on (k3) ([2]; […] [3H]-DPCPX) [M⁻¹ s⁻¹]	Kd ([2]; k off/k on, read-out: SPA Kinetic K D) [nM]	SMILES
0.68 ± 0.01	1.4 ± 0.1									OC[C@H]1O[C@@H](n2cnc3c(NC4CCCC4)nc(Cl)nc32)[C@H](O)[C@@H]1O [CCPA, 2-chloro-N^6-cyclopentyladenosine]
3.7 ± 0.4	2.0 ± 0.1									CCCn1c(=O)c2[nH]c(C3CCCC3)nc2n(CCC)c1=O [DPCPX, 1,3-Dipropyl-8-cyclopentyl-xanthine]
4.4 ± 0.5	2.0 ± 0.1	0.00383 ± 0.0005	1.03e+06 ± 100000	3.7 ± 0.5	4.3 ± 0.6	6.2 ± 0.5	0.00833 ± 0.00083	2.17e+06 ± 830000	3.9 ± 1.5	N#Cc1c(N)nc(SCc2ncc[nH]2)c(C#N)c1-c1ccc(O)cc1 [LUF5834]

SMILES	Filtration assay RT [1] [min]	SPA RT [2] [min]	Filtration assay k off (k4) ([1]; […] [3H]-DPCPX) [s⁻¹]	Filtration assay k on (k3) ([1]; […] [3H]-DPCPX) [M⁻¹ s⁻¹]	Kd ([1]; k off/k on, read-out: Filtration assay Kinetic K D) [nM]	Ki [3] [nM]	Ki [4] [nM]	SPA k off (k4) ([2]; […] [3H]-DPCPX) [s⁻¹]	SPA k on (k3) ([2]; […] [3H]-DPCPX) [M⁻¹ s⁻¹]	Kd ([2]; k off/k on, read-out: SPA Kinetic K D) [nM]
CCCn1c(=O)c2[nH]c(C3CCCC3)nc2n(CCCOC(=O)c2ccc(S(=O)(=O)F)cc2)c1=O [FSCPX, 8-cyclopentyl-3-N-[3-((3-(4-fluorosulphonyl)benzoyl)-oxy)-propyl]-1-N-propyl-xanthine]	167 ± 56	156 ± 31								
